Assay results taken from publication PMC9369712 (2022).

Key:
[1] = tested on: TP3-T6 (DNA, G4) TGGGGTCCGAGGCGGGGCTTGGG; assay: 1H NMR titration (imino protons); settings: 70 mM KCl, 20 mM KH2PO4, pH 7.0, 25 °C, 90% H2O
[2] = tested on: TP3-T6 (DNA, G4) TGGGGTCCGAGGCGGGGCTTGGG; assay: CD melting at 265 nm; settings: 70 mM KCl; 20 mM phosphate pH 7.1; 2 µM DNA, 6 µM ligand; no stabilization
[3] = tested on: TP3-T6 (DNA, G4) TGGGGTCCGAGGCGGGGCTTGGG; assay: CD melting; settings: 70 mM KCl; 20 mM phosphate pH 7.1; 2 µM DNA, DNA:ligand 1:3

Row | binding ([1]; 3'-end tetrad) | SMILES | further results
1 | yes | CN(C)CCNC(=O)c1cccn2c(=O)c3cc4ccccc4cc3nc12 | 
2 | yes | CN(C)CCNC(=O)c1cccn2c(=O)c3sc4ccccc4c3nc12 | binding [2]: yes
3 |  | Cc1cc2c3c([n+](C)c4ccc(F)cc4c3c1)-c1cc(F)ccc1N2C | binding ([1]; 5'-terminal tetrad signals broadened): yes
4 | yes | Cc1cnc(CNC(=O)c2c(=O)c3ccc(N4CCCN(C)CC4)nc3n3c2sc2ccccc23)cn1 | 
5 |  | NCCOc1cc(C(=O)Nc2cc(OCCN)c3ccccc3n2)nc(C(=O)Nc2cc(OCCN)c3ccccc3n2)c1 | ΔTm [3]: > 30 °C
